Measurements published in PMC8282797, “Strictly regulated agonist-dependent activation of AMPA-R is the key characteristic of TAK-653 for robust synaptic responses and cognitive improvement” (Scientific Reports, 2021).

Tests used:
GluA1i S743A = target: T1, GluA1i S743A (Homo sapiens, UniProt P42261, S743A); experiment: Ca2+ influx assay in CHO cells expressing GluA1i S743A; type: cell-based; conditions: at each concentration of glutamate tested (0, 0.3 μM, 1 μM, 3 mM)
T1 construct: expressed in transfected cells; host or cells: CHO cells, transient electroporation
T1 sequence (P42261 19-906 isoform P42261-2 S743A limits assumed): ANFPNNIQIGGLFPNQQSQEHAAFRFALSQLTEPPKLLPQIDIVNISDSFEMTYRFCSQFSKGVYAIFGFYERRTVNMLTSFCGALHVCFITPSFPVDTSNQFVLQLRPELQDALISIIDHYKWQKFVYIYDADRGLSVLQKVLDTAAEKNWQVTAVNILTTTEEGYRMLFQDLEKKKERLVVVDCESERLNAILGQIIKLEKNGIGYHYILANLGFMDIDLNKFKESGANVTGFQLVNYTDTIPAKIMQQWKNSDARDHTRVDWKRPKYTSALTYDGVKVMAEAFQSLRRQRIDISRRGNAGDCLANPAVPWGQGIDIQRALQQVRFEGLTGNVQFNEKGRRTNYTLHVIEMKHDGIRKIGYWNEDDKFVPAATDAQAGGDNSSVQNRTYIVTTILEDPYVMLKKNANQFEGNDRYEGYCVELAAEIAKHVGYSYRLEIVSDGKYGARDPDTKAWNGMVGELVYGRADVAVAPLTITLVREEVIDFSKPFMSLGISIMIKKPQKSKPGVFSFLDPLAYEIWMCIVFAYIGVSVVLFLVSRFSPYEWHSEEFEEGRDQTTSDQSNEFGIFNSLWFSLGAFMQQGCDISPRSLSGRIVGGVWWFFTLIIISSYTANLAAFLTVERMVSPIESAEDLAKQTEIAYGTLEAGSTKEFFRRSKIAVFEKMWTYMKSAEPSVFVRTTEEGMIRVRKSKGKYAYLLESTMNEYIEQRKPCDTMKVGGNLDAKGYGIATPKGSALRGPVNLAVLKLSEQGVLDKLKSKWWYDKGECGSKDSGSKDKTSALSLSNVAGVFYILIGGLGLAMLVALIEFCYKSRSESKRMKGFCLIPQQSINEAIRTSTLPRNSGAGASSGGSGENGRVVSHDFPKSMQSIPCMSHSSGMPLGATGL
T1 sequence (Q9Y698 whole entry partner): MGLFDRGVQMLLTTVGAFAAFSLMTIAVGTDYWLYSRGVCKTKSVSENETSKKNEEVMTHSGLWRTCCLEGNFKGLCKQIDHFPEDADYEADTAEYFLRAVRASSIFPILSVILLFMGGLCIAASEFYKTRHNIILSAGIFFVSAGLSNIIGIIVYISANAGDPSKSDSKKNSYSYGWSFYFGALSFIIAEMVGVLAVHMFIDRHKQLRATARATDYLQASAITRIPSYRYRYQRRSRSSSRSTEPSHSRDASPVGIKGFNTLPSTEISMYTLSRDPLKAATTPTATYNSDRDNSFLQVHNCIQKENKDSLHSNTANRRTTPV
Experimental: Ca^2+ influx assays using human GluA1/flip and human stargazin co-expressing CHO cells plated at 3 × 10^4 cells/well in 96-well Black Clear plates (Corning Incorporated, Corning, NY) were performed as previously described, with some modifications. For evaluation of the species difference, rat GluA1/flip expressing CHO cells were plated. For mutant channels, the human GluA1i S743A mutant was generated using the In-Fusion HD Cloning Kit (Takara Bio Inc., Kusatsu, Japan) according to the manufacturer's protocol and transiently introduced to CHO cells by Gene Pulser II Electroporation System (Bio-Rad Laboratories, Inc., Hercules, CA). Relative increases of intracellular Ca^2+ levels were monitored for 3 min with a fluorometric imaging plate reader (CellLux, Perkin Elmer Life and Analytical Sciences, Inc., Shelton, CT). […]
Human GluA1/flip and human stargazin co-expressing CHO cells were plated at 3×10^4 cells/well in 96-well Black Clear plate (Corning Incorporated, Corning, NY). […] Relative increases of intracellular Ca^2+ levels by compounds in the presence and absence of 3 mM L-glutamate were monitored for 3 min by fluorometric imaging plate reader (CellLux, Perkin Elmer Life and Analytical Sciences, Inc., Shelton, CT). Activity of compound was defined as integration value of fluorescence value of each detection point. […] EC50 values were calculated by logistic regression analysis.

97 targets = experiment: In vitro selectivity profile (Ricerca); conditions: 10 μM
BDNF and Gadd45b mRNA = experiment: AMPA-induced BDNF and Gadd45b mRNA after 14 days of dosing; type: in vivo, mouse; conditions: pre-administration 0.3 mg/kg, p.o. for 14 days
Experimental: Male ICR mice at 7 weeks old were treated with orally administered vehicle or TAK-653. For the repeated dose study, TAK-653 (0.3 mg/kg, p.o.) or vehicle was administered for 14 days. AMPA at designated doses was intravenously (i.v.) administered 1 h after oral administration. Three hours after i.v. administration of AMPA, right hippocampi were isolated from the mice by euthanasia and acutely frozen on dry ice. Total RNA from mouse hippocampus was extracted with RNeasy 96 kit (Qiagen, Hilden, Germany). Reverse transcription of total RNA was performed using the High-capacity cDNA Archive kit (Life Technologies, Carlsbad, CA). Real-time quantitative PCR was carried out using an ABI PRISM 7900HT sequence detection system (Life Technologies) using PCR reagents (Nippon Gene Co. Limited, Toyama, Japan). Primers used for BDNF analyses were as follows: BDNF forward primer, 5’-[…]-3’; BDNF reverse primer, 5’-[…]-3’; BDNF TaqMan probe, 5’-FAM- […]-TAMRA-3’. Primers used for Gadd45b analyses were as follows: Gadd45b forward primer, 5’-[…]-3’; Gadd45b reverse primer, 5’-GCGCCAGCCTCTGCAT-3’; Gadd45b TaqMan probe, 5’'-FAM-[…]-MGB-3’. […] Concentrations of GAPDH mRNA were used for internal controls and relative BDNF or Gadd45b mRNA/GAPDH mRNA levels were calculated.

poly-I:C mouse = experiment: Social approach-avoidance test in poly-I:C mouse; type: in vivo; conditions: 0.3 mg/kg, p.o., 1 h prior to test
Experimental: Poly-I:C (5 mg/kg) dissolved in sterile pyrogen-free 0.9% NaCl (control) solution was administered to pregnant female C57BL/6J mice on gestation day 15 (GD15) via the intravenous route at the tail vein with a volume of 5 ml/kg.
The apparatus was a three-chamber gray acryl box (53 × 19 × 21.5 cm, outer chamber: 19.3 × 19 × 21.5 cm), and dividing walls were made from clear acryl plates with gates. In the two outer chambers, transparent acryl cylinders with small holes (cylinder: 8.2 cm φ × 20.5 cm, hole: 1.3 cm φ) were placed to avoid direct physical interaction between a target animal and a test animal. Target animals were C57BL/6 J mice of the same age as test animals and no previous contact with them. On the test day, TAK-653 (0.3 mg/kg, p.o.) or vehicle was administered 1 h before the testing session. Each test animal was introduced in the middle chamber of test apparatus for 3 min with the gates being closed by partitions. Then the partitions were removed gently for the test animal to explore all three chambers freely for 5 min. Sniffing index was calculated as the index of sociability using the following equation:
Sniffing index = (Sniffing time to cylinder containing target mouse (s) − Sniffing time to empty cylinder (s))/ (Total sniffing time (s)).

Compound: CC1=CN2CCS(=O)(=O)N=C2C(c2ccc(OC3CCCCC3)cc2)=N1 [TAK-653, 9-[4-(Cyclohexyloxy)phenyl]-7-methyl-3,4-dihydropyrazino[2,1-c][1,2,4]thiadiazine 2,2-dioxide]
- Maximum responses in S743A GluA1i versus wild-type GluA1i CHO cells (GluA1i S743A): higher
- Selectivity against 97 targets (97 targets): highly selective
- AMPA-induced BDNF and Gadd45b mRNA expression in hippocampus (BDNF and Gadd45b mRNA): did not affect
- Sniffing index (poly-I:C mouse): significantly improved
